From ChEMBL document CHEMBL1201862, “PubChem BioAssay data set” (2004)
Activity calls are given as the source filed them.

How the values were obtained:
cells [1] = type: functional, cell-based
cells [2] = type: functional, cell-based; remark: listed apart in the source
Leucine aminopeptidase = target: T1, Leucine aminopeptidase (Plasmodium falciparum 3D7, UniProt Q8IL11); experiment: P. falciparum M17LAP inhibitors, primary screen, biochemical, fluorogenic H-Leu-NHMec substrate, 1536-well (AID 1619); type: functional
T1 sequence (Q8IL11 whole entry): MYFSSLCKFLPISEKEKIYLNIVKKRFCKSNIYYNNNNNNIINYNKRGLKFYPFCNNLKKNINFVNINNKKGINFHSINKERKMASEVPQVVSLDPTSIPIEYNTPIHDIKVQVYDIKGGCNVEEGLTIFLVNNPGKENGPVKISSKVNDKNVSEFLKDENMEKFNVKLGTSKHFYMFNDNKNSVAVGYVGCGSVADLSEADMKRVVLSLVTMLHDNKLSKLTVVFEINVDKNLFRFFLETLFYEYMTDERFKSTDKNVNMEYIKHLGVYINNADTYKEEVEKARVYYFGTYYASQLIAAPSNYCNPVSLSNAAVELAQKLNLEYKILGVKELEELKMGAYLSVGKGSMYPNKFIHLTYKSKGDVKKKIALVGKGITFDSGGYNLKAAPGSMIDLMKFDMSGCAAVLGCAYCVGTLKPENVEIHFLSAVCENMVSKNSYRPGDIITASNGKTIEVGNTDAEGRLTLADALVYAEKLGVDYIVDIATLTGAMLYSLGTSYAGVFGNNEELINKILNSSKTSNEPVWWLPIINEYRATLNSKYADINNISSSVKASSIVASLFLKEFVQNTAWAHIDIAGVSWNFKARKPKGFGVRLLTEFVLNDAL

[3] = target: T2, Histone-lysine N-methyltransferase NSD2 (Homo sapiens, UniProt O96028); type: biochemical
T2 sequence (O96028 whole entry): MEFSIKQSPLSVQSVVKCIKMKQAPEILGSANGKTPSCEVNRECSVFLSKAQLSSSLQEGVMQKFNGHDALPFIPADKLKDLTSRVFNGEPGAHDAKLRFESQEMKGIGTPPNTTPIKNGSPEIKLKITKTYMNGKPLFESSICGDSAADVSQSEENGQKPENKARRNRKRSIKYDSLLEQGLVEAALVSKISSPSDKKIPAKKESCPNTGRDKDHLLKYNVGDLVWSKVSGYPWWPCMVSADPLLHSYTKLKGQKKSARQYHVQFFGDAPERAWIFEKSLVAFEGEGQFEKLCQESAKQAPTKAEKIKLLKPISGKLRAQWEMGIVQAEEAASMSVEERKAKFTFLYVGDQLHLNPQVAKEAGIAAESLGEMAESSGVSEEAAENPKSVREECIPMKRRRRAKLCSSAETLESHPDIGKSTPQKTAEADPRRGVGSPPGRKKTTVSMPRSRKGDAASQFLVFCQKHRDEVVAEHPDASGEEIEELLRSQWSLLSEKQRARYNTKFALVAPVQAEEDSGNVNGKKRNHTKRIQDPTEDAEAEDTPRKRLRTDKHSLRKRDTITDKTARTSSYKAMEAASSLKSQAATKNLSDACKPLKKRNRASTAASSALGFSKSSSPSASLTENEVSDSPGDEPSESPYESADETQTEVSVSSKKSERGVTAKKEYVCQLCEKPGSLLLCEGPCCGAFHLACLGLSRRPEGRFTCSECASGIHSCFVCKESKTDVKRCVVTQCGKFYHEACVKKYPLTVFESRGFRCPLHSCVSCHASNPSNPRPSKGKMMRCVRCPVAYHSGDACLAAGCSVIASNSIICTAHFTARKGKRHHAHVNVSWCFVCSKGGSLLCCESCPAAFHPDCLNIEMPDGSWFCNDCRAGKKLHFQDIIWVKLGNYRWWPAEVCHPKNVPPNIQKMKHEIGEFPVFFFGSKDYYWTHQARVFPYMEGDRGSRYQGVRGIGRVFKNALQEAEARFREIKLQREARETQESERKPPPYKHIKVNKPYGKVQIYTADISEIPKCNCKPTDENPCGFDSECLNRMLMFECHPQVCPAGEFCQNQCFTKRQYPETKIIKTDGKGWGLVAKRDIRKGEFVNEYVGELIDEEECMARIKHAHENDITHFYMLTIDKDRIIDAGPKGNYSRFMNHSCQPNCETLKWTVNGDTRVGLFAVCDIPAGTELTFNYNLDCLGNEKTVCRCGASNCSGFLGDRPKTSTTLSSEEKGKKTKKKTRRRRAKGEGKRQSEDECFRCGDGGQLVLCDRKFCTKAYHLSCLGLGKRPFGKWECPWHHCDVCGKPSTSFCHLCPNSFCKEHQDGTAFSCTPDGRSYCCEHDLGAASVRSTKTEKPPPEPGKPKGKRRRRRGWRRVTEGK

cells [4] = experiment: cells
[5] = cytotoxicity toward NIH3T3 fibroblasts, dose response, counter-screen, cell-based, ATP luminescence, mouse fibroblasts (AID 2010); type: functional;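 also: cells exposed to compound for about 90 hours before reading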
[6] = inhibitors of intracellular T. cruzi replication, confirmation, NIH3T3 host cells, beta-gal luminescence (AID 2044); type: functional, cell-based;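 also: intracellular parasites grown in NIH/3T3 mouse fibroblasts as host cells; luminescent beta-galactosidase reporter signal from transgenic T. cruzi replicating inside host cells; inhibitors lower the luminescence signal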
[7] = target: T3, Microphthalmia-associated transcription factor (Homo sapiens, UniProt O75030); experiment: TRPM1 promoter luciferase signal decrease, dose response, MITF inhibitor project, cell-based, SK-MEL-5, cherry-picked, set 3 (AID 493073); type: functional
T3 sequence (O75030 whole entry): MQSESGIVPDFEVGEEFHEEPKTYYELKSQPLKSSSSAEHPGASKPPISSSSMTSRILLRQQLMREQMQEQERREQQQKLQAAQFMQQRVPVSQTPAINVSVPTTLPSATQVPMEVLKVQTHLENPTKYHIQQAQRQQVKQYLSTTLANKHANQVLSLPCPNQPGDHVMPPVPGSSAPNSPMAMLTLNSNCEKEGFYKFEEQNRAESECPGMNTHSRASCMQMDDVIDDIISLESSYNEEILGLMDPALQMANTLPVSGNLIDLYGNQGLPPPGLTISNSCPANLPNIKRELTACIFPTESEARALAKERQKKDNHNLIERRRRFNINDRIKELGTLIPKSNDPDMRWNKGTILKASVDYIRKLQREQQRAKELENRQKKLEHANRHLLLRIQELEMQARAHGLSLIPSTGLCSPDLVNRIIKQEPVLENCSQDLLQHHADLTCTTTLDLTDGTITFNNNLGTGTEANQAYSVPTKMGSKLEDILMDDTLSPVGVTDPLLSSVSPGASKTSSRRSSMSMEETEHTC

INS1 = experiment: beta cell apoptosis inhibitors, cytokine rescue, dose response, luminescence, retest (AID 449756); type: functional, cell-based; conditions: Rattus norvegicus;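 also: cell death triggered by IL-1 beta plus TNF-alpha plus IFN-gamma mixture; protective hits raise ATP signal compared with cytokine alone wells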
[8] = cytotoxicity in OVCAR8 ovarian cancer cells, dose response, PAX8 project, cell-based, plate reader, dry powder samples (AID 743197); type: functional; conditions: OVCAR-8
[9] = IGROV1 ovarian cancer cell cytotoxicity, dose response, PAX8 inhibitor project, plate reader, dry powder samples (AID 743043); type: functional, cell-based; conditions: IGROV-1
Paired box protein Pax-8 = Paired box protein Pax-8 (Homo sapiens, UniProt Q06710); experiment: inhibitors of PAX8-driven TPO luciferase reporter, dose response, RMG-I cells, cherry-pick (AID 687027); type: functional, cell-based;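 also: luciferase reporter driven by Pax8 target thyroperoxidase promoter measured by SteadyGlo luminescence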
Chain of Paired box protein Pax-8 (Q06710 whole entry): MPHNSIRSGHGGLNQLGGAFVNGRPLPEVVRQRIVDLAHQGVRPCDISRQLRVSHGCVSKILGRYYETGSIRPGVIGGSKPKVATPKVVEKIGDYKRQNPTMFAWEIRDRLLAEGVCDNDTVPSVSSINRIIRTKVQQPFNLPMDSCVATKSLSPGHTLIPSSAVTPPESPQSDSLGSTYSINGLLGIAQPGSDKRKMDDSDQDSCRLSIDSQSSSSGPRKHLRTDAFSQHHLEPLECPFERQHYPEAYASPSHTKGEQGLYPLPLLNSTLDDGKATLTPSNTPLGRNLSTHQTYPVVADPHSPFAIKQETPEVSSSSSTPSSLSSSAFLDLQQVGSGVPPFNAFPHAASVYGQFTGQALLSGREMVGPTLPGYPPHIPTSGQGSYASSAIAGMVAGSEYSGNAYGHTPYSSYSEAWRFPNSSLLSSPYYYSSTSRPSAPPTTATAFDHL

Nonstructural protein 1 = Nonstructural protein 1 (Influenza A virus, UniProt Q194T2); type: functional, Influenza A virus (A/California/07/2009(H1N1))
Chain of Nonstructural protein 1 (Q194T2 whole entry): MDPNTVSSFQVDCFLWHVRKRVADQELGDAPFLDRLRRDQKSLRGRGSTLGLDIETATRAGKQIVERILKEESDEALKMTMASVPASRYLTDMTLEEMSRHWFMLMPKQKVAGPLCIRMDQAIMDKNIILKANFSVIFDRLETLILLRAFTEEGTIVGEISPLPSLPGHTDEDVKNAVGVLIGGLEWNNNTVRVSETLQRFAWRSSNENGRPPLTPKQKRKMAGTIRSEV

Cytochrome P450 1A2 = target: T4, Cytochrome P450 1A2 (Homo sapiens, UniProt P05177);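 also: PubChem cytochrome P450 panel assay, CYP1A2 panel member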
T4 sequence (P05177 whole entry): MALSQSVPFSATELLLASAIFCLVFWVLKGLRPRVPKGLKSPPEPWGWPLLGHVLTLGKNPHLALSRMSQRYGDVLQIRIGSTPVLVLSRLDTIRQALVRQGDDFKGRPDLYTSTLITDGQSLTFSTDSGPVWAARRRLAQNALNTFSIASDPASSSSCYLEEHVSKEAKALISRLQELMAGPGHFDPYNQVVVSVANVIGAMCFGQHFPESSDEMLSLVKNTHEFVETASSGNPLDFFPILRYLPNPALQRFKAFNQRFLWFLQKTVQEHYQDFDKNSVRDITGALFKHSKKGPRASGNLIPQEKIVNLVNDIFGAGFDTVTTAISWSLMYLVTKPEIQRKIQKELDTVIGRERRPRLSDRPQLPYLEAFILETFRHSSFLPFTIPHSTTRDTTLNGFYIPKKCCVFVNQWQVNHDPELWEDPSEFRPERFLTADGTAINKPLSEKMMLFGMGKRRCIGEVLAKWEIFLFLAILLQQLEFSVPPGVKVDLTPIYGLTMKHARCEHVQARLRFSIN

[10] = NIH:OVCAR-3 ovarian cancer cell cytotoxicity, dose response, PAX8 inhibitor project, plate reader, dry powder samples (AID 743044); type: functional, cell-based
Estrogen receptor = target: T5, Estrogen receptor (Homo sapiens, UniProt P03372);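 also: potency for inhibiting coactivator peptide recruitment to the receptor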
T5 sequence (P03372 whole entry): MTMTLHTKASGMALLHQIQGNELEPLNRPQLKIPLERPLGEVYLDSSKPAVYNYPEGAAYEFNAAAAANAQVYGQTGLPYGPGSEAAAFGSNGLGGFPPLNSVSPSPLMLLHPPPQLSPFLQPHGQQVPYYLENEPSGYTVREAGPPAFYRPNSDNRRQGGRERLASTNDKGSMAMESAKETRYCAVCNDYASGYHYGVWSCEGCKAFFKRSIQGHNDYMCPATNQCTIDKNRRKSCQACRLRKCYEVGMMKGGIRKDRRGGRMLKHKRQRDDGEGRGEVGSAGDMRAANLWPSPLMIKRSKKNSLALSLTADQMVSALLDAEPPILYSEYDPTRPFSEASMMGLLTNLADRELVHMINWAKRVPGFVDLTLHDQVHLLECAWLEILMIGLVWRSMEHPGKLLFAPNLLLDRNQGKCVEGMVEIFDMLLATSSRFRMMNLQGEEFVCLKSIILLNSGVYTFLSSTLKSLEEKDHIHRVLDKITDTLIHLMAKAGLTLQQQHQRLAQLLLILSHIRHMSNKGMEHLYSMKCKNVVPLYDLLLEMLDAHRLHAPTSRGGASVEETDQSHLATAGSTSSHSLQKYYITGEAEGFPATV

[11] = target: T6, Mannose-6-phosphate isomerase (Homo sapiens, UniProt P34949); experiment: human PMI inhibitors, high substrate, primary screen, biochemical, fluorescence intensity, high mannose 6-phosphate (AID 1220)
T6 sequence (P34949 whole entry): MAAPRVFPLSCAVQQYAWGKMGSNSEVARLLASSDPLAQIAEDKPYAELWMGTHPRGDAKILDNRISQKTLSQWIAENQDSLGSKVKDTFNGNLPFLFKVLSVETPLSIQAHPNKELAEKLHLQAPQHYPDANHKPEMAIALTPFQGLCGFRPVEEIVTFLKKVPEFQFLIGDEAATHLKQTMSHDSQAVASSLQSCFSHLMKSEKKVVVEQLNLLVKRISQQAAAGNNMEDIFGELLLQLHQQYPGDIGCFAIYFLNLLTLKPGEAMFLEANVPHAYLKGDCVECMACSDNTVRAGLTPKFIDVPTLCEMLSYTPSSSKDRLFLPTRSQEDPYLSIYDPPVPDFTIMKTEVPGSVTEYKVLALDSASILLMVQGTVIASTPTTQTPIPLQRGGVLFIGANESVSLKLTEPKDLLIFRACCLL

With O=C(/C=C/c1ccc2c(c1)OCO2)Nc1cccnc1 the EC50 (cells [1]) was > 350 µM (not active) and the EC50 (cells [2]) was 6.64 µM (active).

For Cc1ccc(NC2SC(=O)N(Cc3cccc(C(=O)O)c3)C2=O)cc1 (configuration not stated), the IC50 (Leucine aminopeptidase) was 6.86 µM (active).

In the case of CC1=C(C)CC(C(=O)NNC(=O)c2csc3c2CCC(C(C)(C)C)C3)C(C(=O)O)C1 (configuration not stated), the IC50 (Leucine aminopeptidase) is reported as 8.98 µM (active).

In the case of O=C1C(=O)C(Cl)=C(Cl)C(Cl)=C1Cl, the AC50 [3] is reported as 11.2 µM (active).

For Cc1ccc(-c2c[n+](Cc3ccc(Cl)cc3)c3n2CCC3)cc1, the EC50 (cells [4]) was 0.027 µM (active), the EC50 [5] was > 30 µM (not active) and the EC50 [6] was < 0.1 µM (active). The AC50 [7] was 14.2 µM (active) and the AC50 (INS1) was 5.16 µM (active).

With ON=CNc1cccc2nonc12 the EC50 (cells [1]) was > 350 µM (not active) and the EC50 (cells [2]) was 98.8 µM (active).

For C[C@@H]1CCCCO[C@@H](CN(C)C(=O)Nc2ccc(F)cc2)[C@H](C)CN([C@H](C)CO)C(=O)c2cc(NS(=O)(=O)c3ccc(Cl)cc3)ccc2O1, the AC50 [8] was > 70 µM (inactive), the AC50 [9] was 53 µM (active) and the AC50 (Paired box protein Pax-8) was 6.23 µM (active).

In the case of CCOc1ccc(NC2=C(OC)C(=O)c3ccccc3C2=O)cc1, the AC50 [3] is reported as 6.18 µM (active) and the IC50 (Nonstructural protein 1) is reported as 7.02 µM (active).

With O=C(O)c1nn(Cc2ccc(Cl)cc2Cl)c2ccccc12 [LONIDAMINE] the IC50 (Leucine aminopeptidase) was 7.37 µM (active) and the AC50 (Cytochrome P450 1A2) was 39.8 µM (inconclusive).

In the case of COc1ccc(-c2nn(-c3ccccc3)cc2C(=O)N/N=C/c2ccc([N+](=O)[O-])o2)cc1, the EC50 (cells [4]) is reported as 0.038 µM (active), the EC50 [5] is reported as > 60 µM (not active) and the EC50 [6] is reported as < 0.1 µM (active).

In the case of CCN(CC)CCNS(=O)(=O)c1ccc2c3c(cccc13)C(=O)N2, the AC50 [3] is reported as > 20 µM (inactive).

For C[C@@H]1CCCCO[C@@H](CN(C)Cc2ccc3c(c2)OCO3)[C@@H](C)CN([C@@H](C)CO)C(=O)c2cc(NC(=O)Nc3ccc(C(F)(F)F)cc3)ccc2O1, the AC50 [8] was 44 µM (active), the AC50 [10] was 40.3 µM (active) and the AC50 [9] was 37.4 µM (active). The AC50 (Paired box protein Pax-8) was 8.56 µM (active).

With O=C(Nc1ccc2nn(-c3ccccc3)nc2c1)c1ccc2c(c1)OCO2 the IC50 (Estrogen receptor) was 6.3 µM (active).

With CCCn1/c(=N/C(=O)c2c(-c3c(F)cccc3Cl)noc2C)c(C(=O)OCC)cc2c(=O)n3ccccc3nc21 the EC50 (cells [1]) was > 350 µM (not active) and the EC50 (cells [2]) was > 350 µM (not active).

With CCOCC(=O)Nc1cccc(C(=O)OCC)c1 the IC50 (Estrogen receptor) was > 50 µM (not active).

For CC1CCC2(CC1)NC(=O)N(CC(=O)Nc1ccc(N3CCOCC3)cc1)C2=O (configuration not stated), the IC50 (Leucine aminopeptidase) was 58.6 µM (active).

For Cn1cc(CN2CCCC(CNC(=O)c3ccc4c(c3)OCO4)C2)c2ccccc21 (configuration not stated), the EC50 (cells [4]) was 0.064 µM (active), the EC50 [5] was > 60 µM (not active) and the EC50 [6] was < 0.1 µM (active).

With N#Cc1c(O)nc(S)nc1-c1ccccc1 the IC50 (Leucine aminopeptidase) was 15.7 µM (active).

For O=c1cc(O)c2sc(Nc3cccc(C(F)(F)F)c3)nc2[nH]1, the IC50 [11] was > 50 µM (not active).
